Two molecules from ChEMBL document CHEMBL5537157, “Selective Antitumor Effect and Lower Toxicity of Mitochondrion-Targeting Derivatization of Triptolide” (J Med Chem, 2024) can be followed below.

In series [1] the test system is NCI-H1975. Nature of the series: Cytotoxicity against human NCI-H1975 cells assessed as inhibition of cell viability incubated for 48 hrs by MTT assay. Type of series: functional, cell-based. The conditions noted are these: NCI-H1975, 48 h. A general note: Tetrazolium dyes change colour on reduction, which living cells bring about.
Series [2] in a line: Cytotoxicity against human BEAS-2B cells assessed as inhibition of cell viability incubated for 48 hrs by MTT assay. Type of series: toxicity, cell-based.
For series [3], the system named is A549. The experiment in a line: Cytotoxicity against human A549 cells assessed as inhibition of cell viability incubated for 48 hrs by MTT assay. The conditions noted are these: A549, 48 h. Type of series: functional, cell-based.
For series [4], the system named is NCI-H1975. The experiment in a line: Inhibition of cell viability in human NCI-H1975 cells assessed as effect on cell index at 30 nM by real-time cell analysis. The class given is functional, cell-based.
In series [5] the test system is NCI-H1975. Nature of the series: Inhibition of cell viability in human NCI-H1975 cells assessed as cell index at 270 nM measured after 48 hrs by real-time cell analysis. Type of series: functional.
The subject of series [6] is BEAS-2B. The experiment in a line: Induction of apoptosis in human BEAS-2B cells assessed as morphological change in nucleus at 50 to 400 nM incubated for 24 hrs by DAPI staining based analysis. The class given is toxicity, cell-based. The conditions noted are these: 0.4 µM, dose 50-400 nM.
In series [7] the test system is BEAS-2B. Nature of the series: Induction of apoptosis in human BEAS-2B cells at 50 to 400 nM incubated for 24 hrs by Annexin V-FITC/PI staining based flow cytometry. The class given is toxicity, cell-based. The note with it: 0.4 µM, dose 50-400 nM. On the technique in general: Flow cytometry measures light scatter and fluorescence of single cells or particles in a stream.

Series [8] has as its system NCI-H1975. Nature of the series: Induction of apoptosis in human NCI-H1975 cells at 50 to 400 nM incubated for 24 hrs by Annexin V-FITC/PI staining based flow cytometry. The note with it: dose 50-400 nM. Type of series: functional, cell-based.
In series [9] the test system is BEAS-2B. Nature of the series: Induction of ROS generation in human BEAS-2B cells at 0.4 uM incubated for 24 hrs by DCFH-DA probe based analysis. The class given is toxicity, cell-based.
The nature of series [10]: Developmental toxicity in zebrafish AB zygotes assessed as embryo malformation at 2 to 4 uM treated at 6 hrs post-fertilization measured at 24 to 72 hrs post-fertilization. Also on record: species or system Danio rerio. The conditions noted are these: in vivo, dose lower 2 µM, time lower 18 hrs, dose upper 4 µM, time upper 66 hrs.
Series [11] is described as follows: Developmental toxicity in zebrafish AB zygotes assessed as decrease in hatching rate at 0.25 to 1 uM treated at 6 hrs post-fertilization measured at 24 to 72 hrs post-fertilization. The arrangement: species or system Danio rerio. The note with it: in vivo, dose lower 0.25 µM, time lower 18 hrs, dose upper 1 µM, time upper 66 hrs.
The nature of series [12]: Developmental toxicity in zebrafish AB zygotes assessed as decrease in hatching rate at 2 to 4 uM treated at 6 hrs post-fertilization measured at 24 to 72 hrs post-fertilization. Also on record: species or system Danio rerio. The conditions noted are these: in vivo, dose lower 2 µM, time lower 18 hrs, dose upper 4 µM, time upper 66 hrs.
The nature of series [13]: Renal toxicity in zebrafish assessed as increase in Kim1 expression at 2 uM treated for 48 hrs by RT-qPCR analysis. The arrangement: species or system Danio rerio. The note with it: in vivo. For orientation: Real-time PCR tracks product formation cycle by cycle.
A short description of series [14]: Toxicity in zebrafish embryo assessed as degree of periocular edema at 4 uM pretreated with compound followed by replacement of growth liquid by microscopy (reference value: 0.00 %). The arrangement: species or system Danio rerio. The conditions noted are these: in vivo, 24 h.
Series [15] can be described thus: Toxicity in zebrafish embryo assessed as damage effect in liver development at 2 uM with replacement of new growth solution daily by fluorescence microscopy relative to control. Type of series: tissue-based, Danio rerio. The conditions noted are these: in vivo.
A short description of series [16]: Toxicity in zebrafish embryo assessed as liver function at 2 uM with replacement of new growth solution daily by fluorescence microscopy (reference value: 100 +/- 8.89 %). Type of series: tissue-based, Danio rerio. The conditions noted are these: in vivo.
A short description of series [17]: Toxicity in zebrafish embryo assessed as damage effect in liver function at 2 uM with replacement of new growth solution daily by fluorescence microscopy relative to control. Also on record: species or system Danio rerio. The conditions noted are these: in vivo.
Series [18] relates to HepG2. The experiment in a line: Cytotoxicity against human HepG2 cells assessed as cell growth inhibition at 4.5 to 10 nM incubated for 48 hrs by MTT assay relative to control. Type of series: functional. The conditions noted are these: dose 4.5-10 nM.
Series [19] is described as follows: Cytotoxicity against human HUVEC cells assessed as cell growth inhibition at 4.5 to 10 nM incubated for 48 hrs by MTT assay relative to control. The class given is toxicity, cell-based. The note with it: dose 4.5-10 nM, read-out: Imax.
Series [20] relates to MCF7. The experiment in a line: Cytotoxicity against human MCF7 cells assessed as cell growth inhibition at 4.5 to 10 nM incubated for 48 hrs by MTT assay relative to control. The class given is functional. The note with it: dose 4.5-10 nM.
Series [21] concerns NCI-H1975. Nature of the series: Cytotoxicity against human NCI-H1975 cells assessed as cell growth inhibition at 4.5 to 10 nM incubated for 48 hrs by MTT assay relative to control. Type of series: functional. The conditions noted are these: dose 4.5-10 nM.
A short description of series [22]: Cytotoxicity against human BEAS-2B cells assessed as cell growth inhibition at 4.5 to 10 nM incubated for 48 hrs by MTT assay relative to control. Type of series: toxicity, cell-based. The note with it: dose 4.5-10 nM, read-out: Imax.
The test system of series [23] is NCI-H1975. Nature of the series: Cytotoxicity against human NCI-H1975 cells assessed as cell growth inhibition incubated for 48 hrs by MTT assay. Type of series: functional, cell-based.
Series [24] deals with NCI-H1975. Nature of the series: Cytotoxicity against human NCI-H1975 cells assessed as cell growth inhibition at >41.15 nM incubated for 48 hrs by MTT assay relative to control. The class given is functional.
In series [25] the test system is BEAS-2B. The experiment in a line: Cytotoxicity against human BEAS-2B cells assessed as cell growth inhibition incubated for 48 hrs by MTT assay. Type of series: toxicity, cell-based.
Series [26] relates to MCF7. The experiment in a line: Cytotoxicity against human MCF7 cells assessed as cell growth inhibition incubated for 48 hrs by MTT assay. The class given is functional, cell-based.
The subject of series [27] is A549. Nature of the series: Cytotoxicity against human A549 cells assessed as cell growth inhibition incubated for 48 hrs by MTT assay. The class given is functional, cell-based.
For series [28], the species on record is Danio rerio. Nature of the series: Induction of ROS production in zebrafish at 1 to 2 uM measured after 48 hrs by fluorescence microscopy. Type of series: functional, organism-based. The note with it: dose 1-2 µM.
Series [29] has as its system NCI-H1975. Nature of the series: Inhibition of cell proliferation in human NCI-H1975 cells xenografted in zebrafish at 1 uM measured after 48 hrs by confocal microscopy. The class given is functional, cell-based.
A short description of series [30]: Toxicity in zebrafish xenografted with human NCI-H1975 cells assessed as body deformity at 1 uM. The arrangement: species or system Danio rerio.
Series [31] in a line: Toxicity in zebrafish xenografted with human NCI-H1975 cells assessed as animal death at 2 uM. Also on record: species or system Danio rerio.
Series [32] is described as follows: Teratogenic toxicity in zebrafish AB zygotes at 0.5 to 2 uM treated at 6 hrs post-fertilization measured at 24 to 72 hrs post-fertilization. Also on record: species or system Danio rerio. The conditions noted are these: in vivo, dose lower 0.5 µM, time lower 18 hrs, dose upper 2 µM, time upper 66 hrs.
The nature of series [33]: Developmental toxicity in zebrafish AB zygotes assessed as embryo malformation at 0.5 to 2 uM treated at 6 hrs post-fertilization measured at 24 to 72 hrs post-fertilization. The note with it: in vivo, dose lower 0.5 µM, time lower 18 hrs, dose upper 2 µM, time upper 66 hrs. The arrangement: species or system Danio rerio.
A short description of series [34]: Developmental toxicity in zebrafish AB zygotes assessed as decrease in hatching rate at 1 to 4 uM treated at 6 hrs post-fertilization measured at 24 to 72 hrs post-fertilization. Also on record: species or system Danio rerio. The conditions noted are these: in vivo, dose lower 1 µM, time lower 18 hrs, dose upper 4 µM, time upper 66 hrs.
Series [35] in a line: Developmental toxicity in zebrafish AB zygotes assessed as decrease in body length at 0.25 to 4 uM treated at 6 hrs post-fertilization measured at 24 to 72 hrs post-fertilization. Also on record: species or system Danio rerio. The note with it: in vivo, dose lower 0.25 µM, time lower 18 hrs, dose upper 4 µM, time upper 66 hrs.
Series [36] is described as follows: Renal toxicity in zebrafish assessed as yolk sac absorption at 2 uM treated at 3 hrs post-fertilization measured at 48 hrs post-compound treatment by FITC staining based microscopy. Also on record: species or system Danio rerio. The note with it: in vivo.
Series [37] can be described thus: Renal toxicity in zebrafish assessed as FITC dye residue at 0.25 to 1 uM treated for 24 hrs followed by dye treatment measured after 6 hrs by fluorescence microscopy. The arrangement: species or system Danio rerio. The conditions noted are these: in vivo, 30 h, dose 0.25-1 µM.
Series [38] can be described thus: Renal toxicity in zebrafish assessed as decrease in nephrin expression at 2 uM treated for 48 hrs by RT-qPCR analysis. Also on record: species or system Danio rerio. The note with it: in vivo.

Calls of active or inactive are those of the source. The calls are words filed in the database; no cut-off is given here. A value given as a limit tells only on which side of the number the result lay.

As for `CC(C)[C@]12O[C@H]1[C@@H]1O[C@]13[C@]1(O[C@H]1C[C@H]1C4=C(CC[C@@]13C)C(=O)OC4)[C@@H]2OC(=O)CCCCCCCC[n+]1ccc(/C=C/c2c[nH]c3ccccc23)cc1.[Br-]`, the IC50 (commonly the concentration at which inhibition is half-maximal) was determined as 0.21 µM in series [1] and 46.1 µM in series [3]. Also, the IC50 at 48 h in series [2] stood at 19.2 µM. Further, in [4], the inhibition entry is “Active”. Also, the Activity_index in series [5] is given as 0. Moreover, the Activity result in series [6] is “Non-Toxic”; in [7], “Non-Toxic”; in series [9], “Toxic”; in [10], “Toxic”; in series [11] it was “Non-Toxic”; in [12], “Toxic”. The Activity entry in [13] is “Toxic”; in series [14], 100%; in series [15], 58.21%; in series [16], 20.04%; in series [17], 79.96%. Also, in series [8], the result was Active.

On to `CC(C)[C@]12O[C@H]1[C@@H]1O[C@@]13[C@@]1(C)CCC4=C(COC4=O)[C@@H]1C[C@@H]1O[C@@]13C2=O` [TRIPTONIDE], for which the “inhibition (INH)” value was 80% in series [18], less than 50% in series [24] and “Dose-Dependent Effect” in series [25]. Besides, the Emax at 48 h in series [19] is approximately 60%; in series [22] it was approximately 40%. Moreover, the Imax in series [20] and in [21] was approximately 40% throughout. Further, the inhibition result in series [23], in series [26] and in [27] was “Dose-Dependent Effect” throughout. Besides, the result in series [28] was Active. The inhibition entry in series [29] is “Active”. Besides, the Activity entry in [30], in series [31], in series [32], in series [33], in series [34] and in [35] was “Toxic” in each case. Moreover, the Activity result in series [36], in [37] and in series [38] was “Toxic” each time.
